Values after ≈ are worked out from the molar mass of the structure shown.
Columns and labels:
[1] = tested on: Mycobacterium tuberculosis; assay: The compound was tested for its ability to inhibit the growth of Mycobacterium tuberculosis strain H37Rv; assay type: functional
Mycobacterium avium [2] = assay: The compound was tested for its ability to inhibit the growth of Mycobacterium avium.; assay type: functional
[3] = tested on: Mycobacterium tuberculosis; assay: The compound was tested for its ability to inhibit the growth of Mycobacterium tuberculosis strain H6/99; assay type: functional
Mycobacterium avium [4] = assay: The compound was tested for its ability to inhibit the growth of Mycobacterium avium; Resistant; assay type: functional, organism-based
[5] = tested on: Mycobacterium tuberculosis; assay: The compound was tested for its ability to inhibit the growth of Mycobacterium tuberculosis strain H37Rv; Sensitive; assay type: functional, organism-based
[6] = Solubility in DMSO:water(9:1); assay type: physicochemical; details: read-out: S

Structure (SMILES): COCCOCCOCC[N+]1(C)CCCC1COCCOCCOC.[I-] (stereo not given)
- MIC [1]: > 500 µg/mL
- MIC (Mycobacterium avium [2]): > 500 µg/mL
- MIC [3]: > 500 µg/mL

Structure (SMILES): COCCOCCOCC[N+]1(C)CCCC1.[I-]
- MIC [1]: > 500 µg/mL
- MIC (Mycobacterium avium [2]): > 500 µg/mL
- MIC [3]: > 500 µg/mL

Structure (SMILES): CO[C@H]1/C=C/O[C@@]2(C)Oc3c(C)c(O)c4c(O)c(c(/C=N/N5CCN(C)CC5)c(O)c4c3C2=O)NC(=O)/C(C)=C\C=C\[C@H](C)[C@H](O)[C@@H](C)[C@@H](O)[C@@H](C)[C@H](OC(C)=O)[C@@H]1C
- MIC (Mycobacterium avium [4]): Resistant
- MIC [5]: Sensitive

Structure (SMILES): COCCOCCOCC1N(C)CC23C4=C5C6=C7c8c9c%10c%11c%12c%13c%14c(c2c2c%15c%16c%17c%18c%19c(c5c5c%20c%21c%22c%23c(c8C%22C65)c%10c5c%11c6c%13c8c(c%15%14)c%16c%10c%18c%11c(c%20%19)c%21c%13c%23c5c5c%13c%11c%10c8c65)C%17C42)C%12C9C713 (stereo not given)
- solubility [6]: 15 µM (≈ 13.7 µg/mL)

Structure (SMILES): COCCOCCOCC1CCC[N+]1(C)C.[I-] (stereo not given)
- MIC [1]: > 500 µg/mL
- MIC (Mycobacterium avium [2]): > 500 µg/mL
- MIC [3]: > 500 µg/mL

Structure (SMILES): NNC(=O)c1ccncc1
- MIC (Mycobacterium avium [4]): Resistant
- MIC [5]: Sensitive

Structure (SMILES): COCCOCCOCCN1CCCC1COCCOCCOC (stereo not given)
- MIC [1]: > 500 µg/mL
- MIC (Mycobacterium avium [2]): > 500 µg/mL
- MIC [3]: > 500 µg/mL

Structure (SMILES): COCCOCCOCC1C23C4=C5C6=C7C8c9c(c%10c%11c%12c%13c%14c%15c(c4c4c%16c%17c%18c%19c%20c(c6c6c%21c%22c(c%23c9c%11c9c%23c%11c%22c%22c(c%20%21)c%19c%19c%17c%17c(c%15%16)c%14c%14c%12c9c9c%11c%22c%19c%17c%149)C68)C5C4%18)C2C%10%13)C73C[N+]1(C)C.[I-] (stereo not given)
- MIC [1]: 50 µg/mL
- MIC (Mycobacterium avium [2]): 500 µg/mL
- solubility [6]: 15 µM
- MIC [3]: 5 µg/mL

Structure (SMILES): COCCOCCOCC1CCCN1C (stereo not given)
- MIC [1]: > 500 µg/mL
- MIC (Mycobacterium avium [2]): > 500 µg/mL
- MIC [3]: > 500 µg/mL

Structure (SMILES): COCCOCCOCCN1CC23C4=C5C6=C7c8c9c%10c%11c%12c%13c%14c(c2c2c%15c%16c%17c%18c%19c(c5c5c%20c%21c%22c%23c(c8C%22C65)c%10c5c%11c6c%13c8c(c%15%14)c%16c%10c%18c%11c(c%20%19)c%21c%13c%23c5c5c%13c%11c%10c8c65)C%17C42)C%12C9C73C1COCCOCCOC (stereo not given)
- MIC [1]: 500 µg/mL (≈ 477 µM)
- MIC (Mycobacterium avium [2]): 50 µg/mL (≈ 47.7 µM)
- solubility [6]: 30 µM (≈ 31.4 µg/mL)
- MIC [3]: 500 µg/mL (≈ 477 µM)

Structure (SMILES): COCCOCCOCC[N+]1(C)CC23C4=C5C6=C7c8c9c%10c%11c%12c%13c%14c(c2c2c%15c%16c%17c%18c%19c(c5c5c%20c%21c%22c%23c(c8C%22C65)c%10c5c%11c6c%13c8c(c%15%14)c%16c%10c%18c%11c(c%20%19)c%21c%13c%23c5c5c%13c%11c%10c8c65)C%17C42)C%12C9C73C1.[I-] (stereo not given)
- MIC [1]: 50 µg/mL
- MIC (Mycobacterium avium [2]): 500 µg/mL
- solubility [6]: 43 µM
- MIC [3]: 500 µg/mL

Structure (SMILES): COCCOCCOCCN1CCCC1
- MIC [1]: > 500 µg/mL
- MIC (Mycobacterium avium [2]): > 500 µg/mL
- MIC [3]: > 500 µg/mL

Structure (SMILES): COCCOCCOCC[N+]1(C)CC23C4=C5C6=C7c8c9c%10c%11c%12c%13c%14c(c2c2c%15c%16c%17c%18c%19c(c5c5c%20c%21c%22c%23c(c8C%22C65)c%10c5c%11c6c%13c8c(c%15%14)c%16c%10c%18c%11c(c%20%19)c%21c%13c%23c5c5c%13c%11c%10c8c65)C%17C42)C%12C9C73C1COCCOCCOC.[I-] (stereo not given)
- MIC [1]: 50 µg/mL
- MIC (Mycobacterium avium [2]): 50 µg/mL
- solubility [6]: 95 µM
- MIC [3]: 5 µg/mL

Structure (SMILES): COCCOCCOCCN1CC23C4=C5C6=C7c8c9c%10c%11c%12c%13c%14c(c2c2c%15c%16c%17c%18c%19c(c5c5c%20c%21c%22c%23c(c8C%22C65)c%10c5c%11c6c%13c8c(c%15%14)c%16c%10c%18c%11c(c%20%19)c%21c%13c%23c5c5c%13c%11c%10c8c65)C%17C42)C%12C9C73C1 (stereo not given)
- solubility [6]: 15 µM (≈ 13.7 µg/mL)
